Assay results taken from US7427663B2, “Cardio myopeptidin, the production and the use thereof” (Dalian Zhen-Ao Pharmaceutical Co., Ltd., priority 2003, dated 2008).

What was measured:
[1] = system: succinic dehydrogenase of primarily cultured myocardial cells; experiment: Influence of each peak of cardio myopeptidin on enzyme activity of myocardial cells (MTT method); format: cell-based; conditions: Adriamycin damage group; normal control 0.344
Description: Polypeptide content in cardio myopeptidin is 75-90[…], free amino acids content is 6-15[…], and there is a little nucleic acid and microelement.

myocardial cells = experiment: Influence of pH and time on activity of cardio myopeptidin (MTT method); format: cell-based; conditions: Adriamycin damage group, without cardio myopeptidin; normal control 0.691
[2] = system: myocardial ischemia in cats; experiment: Epicardium electrocardiogram of cats with persistent myocardial ischemia, therapeutic administration; format: in vivo; conditions: cat, 2.0 mg/Kg i.v.
[3] = system: cardiac muscle of ischemia-reperfusion in rats; experiment: Damage of myocardial ultrastructure caused by ischemia-reperfusion, electron microscope semi-quantitative assay; format: in vivo; conditions: rat, 2.0 mg/Kg i.v.
Protocol: (§1) By reference to literature methods, sublingually administer cardio myopeptidin or the reference drug through intravenous injection after rat's coronary artery LAD is ligated for 5 minutes; loosen the ligature after 10 minutes of myocardial ischemia, and reperfusion for 30 min, and simultaneously record II-lead ECG. Blood is taken from the abdominal aorta after the completion of reperfusion, and the heart is perfused and fixed with 6% glutaraldehyde and 0.1 M sodium cacodylate buffer for 2 hours after it is perfused and cleaned with physiological saline water through the aorta. Then the ischemic cardiac muscle from the left frontal wall is picked and cut into 1 mm^3 slices. The slices are immersed in 4% glutaraldehyde and 0.1 M sodium cacodylate buffer to be fixed for the preparation of electron microscope specimens. Slice the specimen of each cardiac muscle after fixation with osmic acid, serial dehydration with acetone, embedment and polymerization with epoxy resin 618, and for each cardiac muscle, cut 4 embedded pieces. Randomly take 20 photos for each group of cardiac muscle of animals with the negative magnification equal to 12000. Observe the change in the ultrastructure, and classify and determine the value according to categories of pathologic changes and severity of damage of mitochondrion, myocardial fiber and other components. […]

[4] = system: myocardial oxygen metabolism in dogs; experiment: Myocardial oxygen consumption and oxygen uptake in anesthetized dogs; format: in vivo; conditions: dog, i.v. 2 mg/kg
Description: Anesthetize dogs with sodium pentobarbital. Conduct endotracheal intubation and artificial respiration, and use an RM-86 polygraph to monitor electrocardiogram and aortic pressure. Open the thoracic cavity from the left side to expose the heart. Intubate a cannula from the apex of the heart to the left ventricle, and record the pressure of the left ventricle and pressure change rate (±dp/dt max). In order to know the change in circulation of the coronary artery and myocardial oxygen metabolism, separate the left circumflex branch of the coronary artery of dogs, use an electromagnetic flowmeter to measure the flow of coronary artery, and calculate the resistance against the coronary artery. Intubate a cannula from the external jugular vein of dogs to the […]. Simultaneously draw the arterial blood and the coronary sinus blood. Use a blood gas analyzer (Model ABL-3, Denmark) to determine blood oxygen content, and calculate myocardial oxygen uptake and myocardial oxygen consumption. Keep the arterial blood pH, CO2 and partial pressure of oxygen of dogs within normal range. The dose of MTP is 2.5 and 10 mg/kg, and the interval between two doses is 30 min. Continuously record various parameters after administration until they return to the control value. Take arterial blood and coronary sinus blood at 2, 5, 10 and 30 minutes after administration. Determine blood gas content, calculate myocardial oxygen uptake and myocardial oxygen consumption, and observe the effect of MTP on myocardial oxygen metabolism.

[5] = system: myocardial ischemia-reperfusion in rats; experiment: Plasma FFA content of rats with ischemia-reperfusion; format: in vivo; conditions: rat I-R, 2.0 mg/kg
Protocol: as §1

[6] = system: isolated rat heart with myocardial ischemia-reperfusion; experiment: Langendorff isolated rat heart, CPK and LDH of coronary effluent; conditions: 1 μg/ml
Protocol: (2) Refer to literature methods to make Langendorff's cardiac hypoxia-reoxygenation damage animal model of isolated rat heart. Conduct Langendorff's perfusion with K—H liquid with high Ca2+ and low K+ and persistent filling of mixed gas. Hook two platinum filaments on the apex of heart and the root of the left cardiac atrium respectively, and record the electrocardiogram. Ligate LAD for 10 min and loosen for 15 min. Conduct perfusion with K—H liquid with corresponding concentrations of cardio myopeptidin from 5 min before ligation to 5 min after loosening for the cardio myopeptidin-treated group. Determine the related indexes of effluent before and after 8 min of ligation and 2 min after loosening respectively. […]

[7] = system: myocardial ischemia-reperfusion in rats; experiment: Cardiac muscle and plasma CPK, LDH, MDA of rats with ischemia-reperfusion, prophylactic administration; format: in vivo; conditions: rat I-R
Protocol: (1) Refer to literature methods to make myocardial ischemia-reperfusion damage animal model. Ligate the left anterior descending branch of the coronary artery of rats for 10 minutes after MTP or verapamil (Ver) is sublingually administered through intravenous injection for 5 min, perfuse for 30 min. Continuously observe II-lead ECG through a polygraph. Take 2 ml left heart blood after the completion of reperfusion, and take the cardiac muscle at the cardiac apex of the left ventricle after the heart is perfused through the aorta. […] Grouping of the experiment: In the experiment, the rats are divided into seven groups: pseudo-operation control group (P); ischemia-reperfusion group (ischemia-reperfusion, I-R); ischemia-reperfusion+normal saline group (I-R+N.S); ischemia-reperfusion +0.5, 2.0 or 10.0 mg/Kg cardio myopeptidin groups (I-R+MTP) and ischemia-reperfusion +1.0 mg/Kg verapamil group (I-R+Ver), 8-10 animals in each group.

[8] = system: myocardial infarction in pigs; experiment: Myocardial infarction in miniature pigs (coronary ligation); format: in vivo; conditions: pig, phleboclysis 0.25 mg/kg
Protocol: Anesthetize a healthy, grown male miniature pig with the body weight of 20.9±4.0 kg with 30 mg/kg of 3% sodium pentobarbital through auditory intravenous injection. Connect the tracheal cannula to a SC-3 electro-respirator to perform artificial positive pressure respiration. Open the thoracic cavity from the third rib at the left side to expose the heart. Separate the anterior descending branch of the coronary artery (about ⅓ distant from the apex of heart), and put a silk thread 0^□ beneath it for ligation. Place a multi-point fixed type epicardium electrode with 20 points on the myocardial surface under the ligature. Record the myocardial electrical signals on an RTA-1200 model hot-wave recorder of a RM-6300 model eight-lead polygraph through a ZYS1-I model numerical control epicardium scanner and AB-601G bioelectric amplifier, and 1 mV standard voltage is equal to 1 mm. Under the control of the automatic timer, measure the change in the electrocardiogram at those 20 points. Intubate a cannula from the femoral artery to the abdominal aorta, and connect it to a AP-641G blood pressure amplifier through a TP-400T model pressotransduer to measure the mean blood pressure (MBP). […]

COc1cccc2c1C(=O)c1c(O)c3c(c(O)c1C2=O)C[C@@](O)(C(=O)CO)C[C@@H]3O[C@H]1C[C@H](N)[C@H](O)[C@H](C)O1 [Adriamycin]
OD value (MTT method) [1]: 0.272 ± 0.015 | OD value (MTT method) (myocardial cells): 0.274 ± 0.011

CC(C)NCC(O)COc1cccc2ccccc12 (stereo not drawn) [propranolol]
ΣNST ([2]; ischemia group 11.1): 6.17 ± 1.5 Num. | ΣΔST ([2]; ischemia group 40.5): 22.8 ± 6.4 mV | Value of pathological changes ± SD [3]: 0.71 ± 0.84 | myocardial oxygen consumption (MVO2), change value after administration ([4]; 2 min): −31.0 ± 13 % | myocardial oxygen uptake (O2 ext), change value after administration ([4]; 2 min): −3.00 ± 1.0% | myocardial oxygen consumption (MVO2), change value after administration ([4]; 5 min): −30.0 ± 13 % | myocardial oxygen uptake (O2 ext), change value after administration ([4]; 5 min): 3.00 ± 7.0% | myocardial oxygen consumption (MVO2), change value after administration ([4]; 10 min): −33.0 ± 10 % | myocardial oxygen uptake (O2 ext), change value after administration ([4]; 10 min): 3.00 ± 8.0% | myocardial oxygen consumption (MVO2), change value after administration ([4]; 30 min): −32.0 ± 14 % | myocardial oxygen uptake (O2 ext), change value after administration ([4]; 30 min): 3.00 ± 9.0% | FFA (plasma) [5]: 77.1 ± 6.4 μmol/100 ml

COc1ccc(CCN(C)CCCC(C#N)(c2ccc(OC)c(OC)c2)C(C)C)cc1OC (stereo not drawn) [verapamil]
Coronary effluent CPK ([6]; during ischemia): 16.2 ± 2.8 U/L | Coronary effluent LDH ([6]; during ischemia): 13.0 ± 0.62 U/L | Coronary effluent CPK ([6]; perfusion): 16.0 ± 1.8 U/L | Coronary effluent LDH ([6]; perfusion): 14.3 ± 0.95 U/L | Coronary effluent CPK ([6]; prior ischemia): 16.3 ± 2.0 U/L | Coronary effluent LDH ([6]; prior ischemia): 11.4 ± 0.78 U/L | Cardiac muscle LDH ([7]; 1.0 mg/Kg): 75.1 ± 23 u/mg pro | Cardiac muscle MDA ([7]; 1.0 mg/Kg): 66.6 ± 19.8 nmol/100 mg pro | Plasma LDH ([7]; 1.0 mg/Kg): 46.7 ± 8.8 u/ml | Plasma MDA ([7]; 1.0 mg/Kg): 24.9 ± 6.6 nmol/mL | Cardiac muscle CPK ([7]; 1.0 mg/kg): 886 ± 115 u/100 mg pro | Plasma CPK ([7]; 1.0 mg/kg): 192 ± 60 u/100 ml | Infarction range [8]: 12.5 ± 3.4 %
